Data reported in ChEMBL document CHEMBL1201862, “PubChem BioAssay data set” (2004).
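1) Cells in 96-well plates. 2) Compound, 48 h, 5 concentrations. 3) Linear interpolation between surrounding doses. 4) Unreached endpoint = highest concentration. GI50 = concentration required for 50% inhibition of growth.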 The source made the active and inactive calls. No stated cut-off is given here; in the data, active = GI50 up to about 1.1 µM and inactive = higher.

Legend:
Experiment in all cases: growth of human tumour cells (NCI), 48 h
[1] = system: SK-MEL-5
[2] = system: CAKI-1
[3] = system: PC-3
[4] = system: TK-10
[5] = system: K562
[6] = system: SW-620
[7] = system: COLO 205
[8] = system: NCI-H23
[9] = system: MDA-MB-435
[10] = system: LOX IMVI
[11] = system: HL-60
[12] = system: MOLT-4
[13] = system: MDA-N
[14] = system: U-251
[15] = system: HCC 2998
[16] = system: 786-0
[17] = system: SK-OV-3
[18] = system: NCI-H226
[19] = system: RXF 393
[20] = system: EKVX

Measured: GI50

O=C(O)c1ccc(C(=O)c2ccccc2)c(C(=O)O)c1
inactive: [1] > 100 µM | [2] > 100 µM | [3] > 100 µM | [4] > 100 µM | [5] > 100 µM | [6] > 100 µM | [7] > 100 µM | [8] > 100 µM | [9] > 100 µM | [10] > 100 µM | [11] > 100 µM | [12] > 100 µM | [13] > 100 µM | [14] > 100 µM | [15] > 100 µM | [16] > 100 µM | [17] > 100 µM | [18] > 100 µM | [19] > 100 µM | [20] > 100 µM

Cc1ccccc1/N=N/c1ccc(N/N=C2/CCCNC2=O)c(C)c1
inactive: [1] 45.2 µM | [2] > 100 µM | [3] > 100 µM | [4] > 100 µM | [5] > 100 µM | [6] > 100 µM | [7] > 100 µM | [8] > 100 µM | [9] > 100 µM | [10] > 100 µM | [11] 8.55 µM | [12] 34.6 µM | [13] > 100 µM | [14] > 100 µM | [15] > 100 µM | [16] > 100 µM | [17] > 100 µM | [18] > 100 µM | [19] > 100 µM | [20] 88.5 µM

CCOC1OC(C)(C=C(C#N)C#N)CCC1C (stereo not given)
inactive: [1] 53.8 µM | [2] 33.2 µM | [3] 49 µM | [4] 59.6 µM | [5] 16.8 µM | [6] 37.2 µM | [7] 36.8 µM | [8] 29.7 µM | [9] 39.1 µM | [10] 22.8 µM | [11] 26.9 µM | [12] 33.3 µM | [13] 47.2 µM | [14] 52.7 µM | [15] 32.1 µM | [16] 25.9 µM | [17] > 100 µM | [18] 23 µM | [19] 53.6 µM | [20] 33.3 µM

C=CCN(c1cc(O)c2c(c(C)cn2S(=O)(=O)c2ccccc2)c1[N+](=O)[O-])S(C)(=O)=O
inactive: [1] 51.4 µM | [2] > 100 µM | [3] > 100 µM | [4] > 100 µM | [5] 38.5 µM | [6] > 100 µM | [7] > 100 µM | [8] > 100 µM | [9] 29.2 µM | [10] 69.2 µM | [11] > 100 µM | [12] 42.4 µM | [13] 36.9 µM | [14] > 100 µM | [15] > 100 µM | [16] > 100 µM | [17] > 100 µM | [18] > 100 µM | [19] 56 µM | [20] 76.9 µM

C=C(C)C(CC=C(C)C)CC12CC(CC=C(C)C)C(C)(C)C(CC=C(C)C)(C(=O)C(Cc3ccc(O)c(O)c3)=C1O)C2=O (stereo not given)
inactive: [1] > 100 µM | [2] > 100 µM | [3] > 100 µM | [4] > 100 µM | [5] 99.3 µM | [6] > 100 µM | [7] > 100 µM | [8] > 100 µM | [9] > 100 µM | [10] > 100 µM | [11] > 100 µM | [12] 50.6 µM | [13] > 100 µM | [14] > 100 µM | [15] > 100 µM | [16] > 100 µM | [17] > 100 µM | [18] > 100 µM | [19] > 100 µM | [20] > 100 µM

Cc1cc2c(cc1C)[n+]([O-])c(C(=O)/C=C/c1ccc3c(c1)OCO3)c(C)[n+]2[O-]
inactive: [1] > 100 µM | [2] 61.1 µM | [3] > 100 µM | [4] 23.9 µM | [5] > 100 µM | [6] > 100 µM | [7] > 100 µM | [8] 38.3 µM | [9] > 100 µM | [10] 36.7 µM | [11] > 100 µM | [12] > 100 µM | [13] > 100 µM | [14] 25.4 µM | [15] > 78.5 µM | [16] 36.6 µM | [17] 19.8 µM | [18] 86.5 µM | [19] 28.7 µM | [20] > 70 µM

Nc1cc2c3c(cccc3c1)NC2=O
inactive: [1] 92.3 µM | [2] 24.6 µM | [3] > 100 µM | [4] > 100 µM | [5] > 100 µM | [6] 82.4 µM | [7] > 100 µM | [8] 79.8 µM | [9] > 100 µM | [10] 51.4 µM | [11] > 100 µM | [12] 24 µM | [13] 68.7 µM | [14] 31.8 µM | [15] > 100 µM | [16] > 100 µM | [17] 94 µM | [18] > 100 µM | [19] > 100 µM | [20] 20.9 µM

Cc1ccc(-c2nc(N/N=C/C=C/c3ccccc3)c3ccccc3n2)cc1
inactive: [1] 14.8 µM | [2] 38.8 µM | [3] 28.6 µM | [4] 20 µM | [5] > 100 µM | [6] 29.1 µM | [7] 57.3 µM | [8] 44.1 µM | [9] 52 µM | [10] 48.6 µM | [11] > 100 µM | [12] > 100 µM | [13] 74.6 µM | [14] 33.3 µM | [15] 28.4 µM | [16] 30 µM | [17] 23.8 µM | [18] > 100 µM | [19] 26.2 µM | [20] 15 µM

CC1(C)C2CCC(CN)(C2)C1N (stereo not given)
inactive: [1] > 100 µM | [2] > 100 µM | [3] > 100 µM | [4] > 100 µM | [5] > 100 µM | [6] > 100 µM | [7] > 100 µM | [8] > 100 µM | [9] > 100 µM | [10] > 100 µM | [11] > 100 µM | [12] > 100 µM | [13] > 100 µM | [14] > 100 µM | [15] 9.42 µM | [16] > 100 µM | [17] > 100 µM | [18] > 100 µM | [19] > 100 µM | [20] > 100 µM

CC(C)(C)OC(=O)N/C(C=O)=C\C1CCCCC1
inactive: [1] 15.3 µM | [2] 20.4 µM | [3] 17.3 µM | [4] 17.7 µM | [5] 22.6 µM | [6] 27.3 µM | [7] 19.2 µM | [8] 23.7 µM | [9] 20 µM | [10] 14.3 µM | [11] 25.4 µM | [12] 14.8 µM | [13] 18.5 µM | [14] 17.2 µM | [15] 19.8 µM | [16] 19.9 µM | [17] 30 µM | [18] 21.2 µM | [19] 23.4 µM | [20] 17.2 µM
